Measured values reported in patent publication US20250194663A1, “ORAL POUCH PRODUCT CONTAINING AMINO ACID OR SALT THEREOF” (Japan Tobacco Inc., priority 2022, published 2025).
One block for each compound: values may come before it.

Experiments:
[1] = Spectrocolorimeter (CM-5) measurement of samples before and after adsorption and desorption measurement; format: physicochemical
Protocol: Changes in the samples between before and after the measurement of the adsorption and desorption isotherms were measured using Konica Minolta, Inc.'s spectrocolorimeter (CM-5). The measurement conditions were reflection measurement and the SCI method, and the measurements were taken with the observation window of a 3-mm φ target mask covered with the glass container after the adsorption and desorption measurement. A blank tube, with no sample placed in it, was also subjected to the measurement, through which a measurement in a transparent state was determined. The measurements are converted values for a 10° field of view and a D65 light source.

[2] = cited from earlier work; for pI: amino acid isoelectric point; for pKa (—COOH group) / pKa (—NH3 group): amino acid
[3] = for State of sample after the end of the measurement: FIG. 2, after adsorption and desorption measurement; for Deliquescence: conclusion from isotherm and appearance; for Appearance after storage: tubes tightly closed, stored 9 days at normal temperature after measurement
Protocol: For the measurement, MicrotracBEL (MicrotracBEL Corporation) BELSORP MAX III was used. As a pretreatment of samples, the samples were vacuum-dried at 105° C. until the leakage was 1 Pa/min or less.
The measurement conditions were set as follows. • At relative pressures (humidity levels) from 0.025 to 0.3: measurements are taken at relative pressure intervals of 0.025 • At relative pressures (humidity levels) beyond 0.3 to 0.95: measurements are taken at relative pressure intervals of 0.05
After reaching a relative pressure of 0.95: measurements are taken at equal relative pressure intervals until a relative pressure of 0.1 (For TSP, however, the relative pressure limit was set to approximately 0.5 because measurement accuracy is reduced due to a prolonged measurement time.)
The equilibration conditions were that at relative pressures of 0.9 or lower, pressure changes should be 0.3% or smaller variations over 300 sec, and that at relative pressures of 0.9 or higher, pressure changes should be 0.3 Pa, as a pressure value, or smaller variations over 300 sec.

[4] = after adsorption and desorption measurement
[5] = before adsorption and desorption measurement
[6] = 9 days after adsorption and desorption measurement

SMILES: N=C(N)NCCC[C@H](N)C(=O)O [Arginine, arginine]
L* (D65) [1, 4]: 94.8
a* (D65) [1, 4]: −0.2
b* (D65) [1, 4]: 0.1
L* (D65) [1, 5]: 99.0
a* (D65) [1, 5]: −0.1
b* (D65) [1, 5]: 0.4
pI [2]: 10.76
pKa (—COOH group) [2]: 2.17

SMILES: CC(C)[C@H](N)C(=O)O [Valine]
pI [2]: 5.96
pKa (—NH3 group) [2]: 9.62

L* (D65) [1, 4]: 33.7
a* (D65) [1, 4]: −0.1
b* (D65) [1, 4]: −0.2
L* (D65) [1, 5]: 84.8
a* (D65) [1, 5]: −0.2
b* (D65) [1, 5]: 1.1
Deliquescence [3]: have deliquescence
Appearance after storage [3]: became a whitened film form
SMILES: N[C@@H](CCC(=O)O)C(=O)[O-].[Na+] [MSG, Na glutamate]
State of sample after the end of the measurement [3]: transitioned to a transparent liquid state

SMILES: NCC(=O)O [Glycine]
pI [2]: 5.97

SMILES: C[C@@H](O)[C@H](N)C(=O)O [Threonine]
pI [2]: 5.6
pKa (—COOH group) [2]: 2.09

SMILES: N[C@@H](CS)C(=O)O [Cysteine]
pI [2]: 5.07
pKa (—NH3 group) [2]: 10.28

SMILES: O=P([O-])([O-])[O-].[Na+].[Na+].[Na+] [TSP, trisodium phosphate, reference compound]
L* (D65) [1, 4]: 92.4
a* (D65) [1, 4]: −0.1
b* (D65) [1, 4]: 0.1
L* (D65) [1, 5]: 98.5
a* (D65) [1, 5]: 0.0
b* (D65) [1, 5]: 0.5

L* (D65) [1, 6]: 33.1
a* (D65) [1, 6]: −0.3
L* (D65) [1, 4]: 26.5
a* (D65) [1, 4]: −0.3
b* (D65) [1, 4]: −0.9
L* (D65) [1, 5]: 87.1
a* (D65) [1, 5]: −0.1
Deliquescence [3]: have deliquescence
Appearance after storage [3]: maintained the degree of transparency
SMILES: NCCCC(=O)O [GABA, γ-aminobutyric acid]
State of sample after the end of the measurement [3]: transitioned to a transparent liquid state
pI [2]: 7.3
pKa (—COOH group) [2]: 4.23

SMILES: O=C(O)[C@@H]1CCCN1 [Proline]
pI [2]: 6.3

SMILES: C[C@H](N)C(=O)O [Alanine]
pI [2]: 6
pKa (—COOH group) [2]: 2.34

SMILES: N[C@@H](Cc1ccc(O)cc1)C(=O)O [Tyrosine]
pI [2]: 5.66

SMILES: O=C1CC[C@@H](C(=O)O)N1 [Pyroglutamic acid]
pI [2]: 5.68

SMILES: NCCCC[C@H](N)C(=O)O [Lysine]
pI [2]: 9.74
pKa (—COOH group) [2]: 2.18

SMILES: NC(=O)C[C@H](N)C(=O)O [Asparagine]
pI [2]: 5.41
pKa (—COOH group) [2]: 2.02

SMILES: O=C(O)[C@@H]1C[C@@H](O)CN1 [Hydroxyproline]
pKa (—COOH group) [2]: 1.82
pKa (—NH3 group) [2]: 9.65

SMILES: N[C@@H](Cc1c[nH]c2ccccc12)C(=O)O [Tryptophan]
pI [2]: 5.89
pKa (—COOH group) [2]: 2.83

L* (D65) [1, 6]: 53.6
a* (D65) [1, 6]: −0.7
SMILES: N[C@@H](CCC(=O)O)C(=O)O [Glutamic acid]
pI [2]: 3.22

SMILES: N[C@@H](CC(=O)O)C(=O)O [Aspartic acid]
pI [2]: 2.77

SMILES: N[C@@H](Cc1c[nH]cn1)C(=O)O [Histidine]
pI [2]: 7.59

SMILES: N[C@@H](Cc1ccccc1)C(=O)O [Phenylalanine]
pI [2]: 5.48
pKa (—COOH group) [2]: 1.83
pKa (—NH3 group) [2]: 9.13

SMILES: CSCC[C@H](N)C(=O)O [Methionine]
pI [2]: 5.74
pKa (—COOH group) [2]: 2.28
pKa (—NH3 group) [2]: 9.21

SMILES: N[C@@H](CO)C(=O)O [Serine]
pI [2]: 5.68

SMILES: CC[C@H](C)[C@H](N)C(=O)O [Isoleucine]
pI [2]: 6.02
pKa (—COOH group) [2]: 2.36
